System: participants with SSc-RP
Experiment: Average severity of weekly RP attacks (VAS 0-10 cm scale)
Assay type: in vivo, human
Description: The absolute change in average severity of weekly RP attacks (VAS 0-10 cm scale) from baseline to the end of each Dosing Period was and will be a secondary outcome variable. The sponsor-developed participant-informed diary will be used to record data. Average severity of weekly RP attacks is defined as the total severity scores of RP attacks divided by total number of RP attacks within the last 7 days of each dosing period. Total severity scores of RP attacks during the last 7 days of screening period divided by the total number of RP attacks will be used as baseline for the analysis of all periods. The variable will be calculated similar to frequency data as before.

[1] = Pooled Cilnidipine 20 mg and Cilnidipine 20 mg + Tadalafil 5 mg, n=4, Excluding Outliers, ITT Population - Part A
[2] = Pooled Cilnidipine 20 mg and Cilnidipine 20 mg + Tadalafil 5 mg, n=4, ITT Population - Part A
[3] = Pooled Cilnidipine 20 mg and Cilnidipine 20 mg + Tadalafil 5 mg, Excluding Outliers, ITT Population - Part A
[4] = Pooled Cilnidipine 20 mg and Cilnidipine 20 mg + Tadalafil 5 mg, Excluding Outliers, by Baseline RCS, first subgroup, ITT Population - Part A
[5] = Pooled Cilnidipine 20 mg and Cilnidipine 20 mg + Tadalafil 5 mg, Excluding Outliers, by Baseline RCS, second subgroup, ITT Population - Part A
[6] = Pooled Cilnidipine 20 mg and Cilnidipine 20 mg + Tadalafil 5 mg, ITT Population - Part A
[7] = Pooled Cilnidipine 20 mg and Cilnidipine 20 mg + Tadalafil 5 mg, first Baseline RCS subgroup block (not named), ITT Part A
[8] = Pooled Cilnidipine 20 mg and Cilnidipine 20 mg + Tadalafil 5 mg, first Baseline RCS subgroup block (not named), ITT Part A, score 0-10
[9] = Pooled Cilnidipine 20 mg and Cilnidipine 20 mg + Tadalafil 5 mg, second Baseline RCS subgroup block (not named), ITT Part A
[10] = Pooled Cilnidipine 20 mg and Cilnidipine 20 mg + Tadalafil 5 mg, second Baseline RCS subgroup block (not named), ITT Part A, score 0-10
[11] = Pooled Cilnidipine, n=3, Excluding Outliers, ITT Population - Part A
[12] = Pooled Cilnidipine, n=3, ITT Population - Part A
[13] = Pooled Cilnidipine, n=3, by Baseline RCS, first subgroup, ITT Population - Part A
[14] = Pooled Cilnidipine, first Baseline RCS subgroup block (not named), ITT Part A
[15] = Pooled Cilnidipine, first Baseline RCS subgroup block (not named), ITT Part A, score 0-10

## COCCOC(=O)C1=C(C)NC(C)=C(C(=O)OC/C=C/c2ccccc2)C1c1cccc([N+](=O)[O-])c1 (stereo not shown) [Cilnidipine, cilnidipine]
[1]
  Average Severity (0-10) of Weekly Symptomatic RP Attacks, Mean: 3.40
  Average Severity (0-10) of Weekly Symptomatic RP Attacks, Median: 3.18
  Average Severity of Weekly Symptomatic RP Attacks, Change from Baseline, Mean: −1.24
  Average Severity of Weekly Symptomatic RP Attacks, Change from Baseline, Median: −1.06
  Average Severity of Weekly Symptomatic RP Attacks, Percent Change from Baseline, Mean: −24.75%
  Average Severity of Weekly Symptomatic RP Attacks, Percent Change from Baseline, Median: −19.08%
[2]
  Average Severity (0-10) of Weekly Symptomatic RP Attacks, Mean: 3.40
  Average Severity (0-10) of Weekly Symptomatic RP Attacks, Median: 3.18
  Average Severity of Weekly Symptomatic RP Attacks, Change from Baseline, Mean: −1.24
  Average Severity of Weekly Symptomatic RP Attacks, Change from Baseline, Median: −1.06
  Average Severity of Weekly Symptomatic RP Attacks, Percent Change from Baseline, Mean: −24.75%
  Average Severity of Weekly Symptomatic RP Attacks, Percent Change from Baseline, Median: −19.08%
[3]
  Average Severity of Weekly RP Attacks (All Attacks), Change from Baseline, Mean: −1.02
  Average Severity of Weekly RP Attacks (All Attacks), Change from Baseline, Median: −0.96
  Average Severity of Weekly RP Attacks (All Attacks), Mean: 3.35
  Average Severity of Weekly RP Attacks (All Attacks), Median: 3.06
  Average Severity of Weekly RP Attacks (All Attacks), Percent Change from Baseline, Mean: −21.83%
  Average Severity of Weekly RP Attacks (All Attacks), Percent Change from Baseline, Median: −16.40%
[4]
  Average Severity of Weekly Symptomatic RP Attacks (Mean): 2.85
  Average Severity of Weekly Symptomatic RP Attacks (Median): 2.40
  Average Severity of Weekly Symptomatic RP Attacks, Change from Baseline, Mean: −1.06
  Average Severity of Weekly Symptomatic RP Attacks, Change from Baseline, Median: −0.33
  Average Severity of Weekly Symptomatic RP Attacks, Percent Change from Baseline, Mean: −24.28%
  Average Severity of Weekly Symptomatic RP Attacks, Percent Change from Baseline, Median: −12.02%
[5]
  Average Severity of Weekly Symptomatic RP Attacks (Mean): 5.06
  Average Severity of Weekly Symptomatic RP Attacks (Median): 5.06
  Average Severity of Weekly Symptomatic RP Attacks, Change from Baseline, Mean: −1.79
  Average Severity of Weekly Symptomatic RP Attacks, Change from Baseline, Median: −1.79
  Average Severity of Weekly Symptomatic RP Attacks, Percent Change from Baseline, Mean: −26.14%
  Average Severity of Weekly Symptomatic RP Attacks, Percent Change from Baseline, Median: −26.14%
[6]
  Average Severity of Weekly RP Attacks (All Attacks), Change from Baseline, Mean: −1.02
  Average Severity of Weekly RP Attacks (All Attacks), Change from Baseline, Median: −0.96
  Average Severity of Weekly RP Attacks (All Attacks), Mean: 3.35
  Average Severity of Weekly RP Attacks (All Attacks), Median: 3.06
  Average Severity of Weekly RP Attacks (All Attacks), Percent Change from Baseline, Mean: −21.83%
  Average Severity of Weekly RP Attacks (All Attacks), Percent Change from Baseline, Median: −16.40%
[7]
  Average Severity of Weekly RP Attacks (All Attacks), Percent Change from Baseline, Mean: −21.36%
  Average Severity of Weekly RP Attacks (All Attacks), Percent Change from Baseline, Median: −9.57%
[8]
  Average Severity of Weekly RP Attacks (All Attacks), Change from Baseline, Mean: −0.84
  Average Severity of Weekly RP Attacks (All Attacks), Change from Baseline, Median: −0.39
  Average Severity of Weekly RP Attacks (All Attacks), Mean: 2.78
  Average Severity of Weekly RP Attacks (All Attacks), Median: 2.40
[9]
  Average Severity of Weekly RP Attacks (All Attacks), Percent Change from Baseline, Mean: −23.23%
  Average Severity of Weekly RP Attacks (All Attacks), Percent Change from Baseline, Median: −23.23%
[10]
  Average Severity of Weekly RP Attacks (All Attacks), Change from Baseline, Mean: −1.53
  Average Severity of Weekly RP Attacks (All Attacks), Change from Baseline, Median: −1.53
  Average Severity of Weekly RP Attacks (All Attacks), Mean: 5.06
  Average Severity of Weekly RP Attacks (All Attacks), Median: 5.06
Pooled Cilnidipine (n = 7)
  Severity: −16%
[11]
  Average Severity (0-10) of Weekly Symptomatic RP Attacks, Mean: 2.79
  Average Severity (0-10) of Weekly Symptomatic RP Attacks, Median: 2.40
  Average Severity of Weekly Symptomatic RP Attacks, Change from Baseline, Mean: −0.87
  Average Severity of Weekly Symptomatic RP Attacks, Change from Baseline, Median: −0.33
  Average Severity of Weekly Symptomatic RP Attacks, Percent Change from Baseline, Mean: −19.22%
  Average Severity of Weekly Symptomatic RP Attacks, Percent Change from Baseline, Median: −12.02%
[12]
  Average Severity (0-10) of Weekly Symptomatic RP Attacks, Mean: 2.79
  Average Severity (0-10) of Weekly Symptomatic RP Attacks, Median: 2.40
  Average Severity of Weekly Symptomatic RP Attacks, Change from Baseline, Mean: −0.87
  Average Severity of Weekly Symptomatic RP Attacks, Change from Baseline, Median: −0.33
  Average Severity of Weekly Symptomatic RP Attacks, Percent Change from Baseline, Mean: −19.22%
  Average Severity of Weekly Symptomatic RP Attacks, Percent Change from Baseline, Median: −12.02%
[13]
  Average Severity (0-10) of Weekly Symptomatic RP Attacks, Mean: 2.79
  Average Severity (0-10) of Weekly Symptomatic RP Attacks, Median: 2.40
  Average Severity of Weekly Symptomatic RP Attacks, Change from Baseline, Mean: −0.87
  Average Severity of Weekly Symptomatic RP Attacks, Change from Baseline, Median: −0.33
  Average Severity of Weekly Symptomatic RP Attacks, Percent Change from Baseline, Mean: −19.22%
  Average Severity of Weekly Symptomatic RP Attacks, Percent Change from Baseline, Median: −12.02%
[14]
  Average Severity of Weekly RP Attacks (All Attacks), Percent Change from Baseline, Mean: −17.99%
  Average Severity of Weekly RP Attacks (All Attacks), Percent Change from Baseline, Median: −7.69%
[15]
  Average Severity of Weekly RP Attacks (All Attacks), Change from Baseline, Mean: −0.71
  Average Severity of Weekly RP Attacks (All Attacks), Change from Baseline, Median: −0.20
  Average Severity of Weekly RP Attacks (All Attacks), Mean: 2.55
  Average Severity of Weekly RP Attacks (All Attacks), Median: 2.40

— US20240358693A1, “METHODS OF TREATING PAIN” (Aisa Pharma, Inc., priority 2023, published 2024)
